According to patent US8486863B2, “Activators of lateral root formation” (VIB VZW, priority 2006, dated 2013):

What was measured:
[1] = tested on: genes involved in auxin biosynthesis, auxin transport, auxin signaling and cell cycle; assay: Q-PCR transcript profiling of roots after compound treatment; type: in vivo, Arabidopsis thaliana; conditions: 30 μM; 6 hrs or 24 hrs treatment
Experimental: FIG. 5: Transcript profiling of roots of wild-type Arabidopsis thaliana plants after 6 hrs or 24 hrs treatment with A2 (upper panel), A14 (middle panel) or A11 (lower panel) at a concentration of 30 μM.
RNA was extracted with the RNeasy kit. Poly(dT) cDNA was prepared from […] of total RNA with Superscript III reverse transcriptase (Invitrogen) and quantified on an LightCycler 480 apparatus (Roche) with the SYBR Green I Master kit (Roche) according to the manufacturers instructions. Target quantifications were performed with specific primer pairs designed with the Beacon Designer 4.0 (Premier Biosoft International). All PCRs were performed in triplicate. […] The primers used to quantify gene expression levels were: […]
Using Q-PCR, the expression of selected genes involved in auxin biosynthesis, auxin transport, auxin signaling and cell cycle was analyzed in response to compound treatment (FIG. 5).

[2] = tested on: Wild-type Arabidopsis thaliana; assay: Dose-response analysis of lateral root density and root length; type: in vivo; conditions: for potency as activator of LR development (LR density): dose-response, FIG. 3; for compound concentration that increased root density five times compared to controls: 10 days after germination; for Root length: at the concentration that increased root density five times (20 μM A11, 1.5 μM NAA)
Experimental: FIG. 3: Dose-response analysis of class 1 (upper panel) and class 2 (lower panel) activators. Wild-type Arabidopsis thaliana seeds were germinated under standard conditions on agar plates. After 3 days of germination, seedlings were transferred to agar plates containing compound at different concentrations. Lateral root density was measured 10 days after germination. Bars represent standard errors.
FIG. 4: Dose-response analysis of A2, A11, A12, A14 and NAA. Wild-type Arabidopsis thaliana seeds were germinated under standard conditions on agar plates. After 3 days of germination, seedlings were transferred to agar plates containing compound at different concentrations and 1% DMSO. Plants transferred to agar plates containing 1% DMSO and no compound were used as controls. Lateral root density (left panels) and root length (right panels) were measured 10 days after germination. Bars represent standard errors.
For further phenotypic analysis, all plants were grown on vertically oriented square plates (Greiner Labortechnik, Austria) with solid medium derived from standard MS medium under the same conditions. 3 DAG plants were transferred to medium supplemented with compounds and were left to grow for another 7 days. After this, root length and number of LRs were counted using ImageJ 1.34 freeware.
As a subsequent step, the phenotypic effect of the 16 selected activators was determined in a dose-response analysis in which LR density (number of LRs per cm) was quantified (FIG. 3). Based upon potency and structure, two different classes of activators could be identified.

auxin signaling mutants [3] = assay: Effect of activators on lateral root density of auxin signaling mutants (Table 2); type: in vivo, Arabidopsis thaliana
Source text: (§1) Afb1, Afb2, Afb3 and the triple mutant Tirlafb2afb3 were described by Dhamasiri et al. (2005). Tir1 was described by Ruegger et al., (1998); 1aa28 by Rogg et al., (2001); Tir7-1 by Ruegger et al., (1997); the Cyp79b2b3 double mutant by Ljung et al. (2005); the arf7arf19 double mutant by Fukaki et al., (2005); Aux1 by Bennett et al., (1996); Xbat32 by Nodzon et al., (2004), Axr1-12 by Timpte et al., (1995), Slr1 by Fukaki et al., 2002 and Axr3-1 by Collet et al., (2000) and the mutants were obtained from the publishing authors.
(§2) For phenotypic analysis, all mutants were grown on vertically oriented square plates (Greiner Labortechnik, Austria) with solid medium derived from standard MS medium. The plates were put in a growth chamber under continuous light (110 μE.m2.s1 photosynthetically active radiation, supplied by cool-white fluorescent tungsten tubes; Osram) at 22° C. Three days after germination, the mutant plants were transferred to medium supplemented with compounds and were left to grow for another 7 days. After this, root length and number of lateral roots were counted using ImageJ 1.34 freeware.

auxin signaling mutants [4] = assay: Effect of A12 and NAA on lateral root density and root length of auxin signaling mutants (Table 1); type: in vivo, Arabidopsis thaliana; set-up: Root length: unit not given here; conditions: 3 uM
Source text: as §1, §2
DMSO is used as negative control.

[5] = tir TM (Tir1afb2afb3 triple mutant)

CCOC(=O)c1c(NC(=O)COc2ccc(Cl)cc2C)sc2c1CC(C)(C)OC2 [A2, ethyl 2-{[(4-chloro-2-methylphenoxy)acetyl]amino}-5,5-dimethyl-4,7-dihydro-5H-thieno[2,3-c]pyran-3-carboxylate]
stage of LR initiation at which the effect on gene expression is exerted [1]: early stages of LR initiation (6 h)
potency as activator of LR development (LR density) [2]: most potent activators of class 2
lateral root density (auxin signaling mutants [3]; Afb1-1, 30 uM): 13.86 LR/cm
lateral root density (auxin signaling mutants [3]; Afb2-1, 30 uM): 10.07 LR/cm
lateral root density (auxin signaling mutants [3]; Afb3-1, 30 uM): 10.03 LR/cm
lateral root density (auxin signaling mutants [3]; Arf7Arf19, 30 uM): 0.00 LR/cm
lateral root density (auxin signaling mutants [3]; Arf16, 30 uM): 9.56 LR/cm
lateral root density (auxin signaling mutants [3]; Arf17, 30 uM): 8.67 LR/cm
lateral root density (auxin signaling mutants [3]; Axrt-12, 30 uM): 13.97 LR/cm
lateral root density (auxin signaling mutants [3]; Cyp79, 30 uM): 13.69 LR/cm
lateral root density (auxin signaling mutants [3]; Iaa28-1, 30 uM): 4.32 LR/cm
lateral root density (auxin signaling mutants [3]; Tir1-1, 30 uM): 11.98 LR/cm
lateral root density (auxin signaling mutants [3]; Tir7-1, 30 uM): 28.57 LR/cm
lateral root density (auxin signaling mutants [3]; TirTM, 30 uM): 0.00 LR/cm
lateral root density (auxin signaling mutants [3]; Xbat32, 30 uM): 9.67 LR/cm

O=C(O)Cc1cccc2ccccc12 [NAA, 1-naphthylacetic acid, reference compound]
Root length (auxin signaling mutants [4]; CDKB DN): 0.42
LR density (auxin signaling mutants [4]; Col-0): 52.98
Root length (auxin signaling mutants [4]; Col-0): 1.08
LR density (auxin signaling mutants [4]; Ws): 45.59
Root length (auxin signaling mutants [4]; Ws): 0.87
LR density (auxin signaling mutants [4]; Xbat32): 36.83
Root length (auxin signaling mutants [4]; Xbat32): 1.33
LR density (auxin signaling mutants [4]; afb1-1): 51.36
Root length (auxin signaling mutants [4]; afb1-1): 0.93
LR density (auxin signaling mutants [4]; afb2-1): 51.08
Root length (auxin signaling mutants [4]; afb2-1): 0.87
LR density (auxin signaling mutants [4]; afb3-1): 46.76
Root length (auxin signaling mutants [4]; afb3-1): 0.94
Root length (auxin signaling mutants [4]; arf7arf19 DM (double mutant)): 0.87
Root length (auxin signaling mutants [4]; aux1): 0.93
LR density (auxin signaling mutants [4]; axr1-12): 40.22
Root length (auxin signaling mutants [4]; axr1-12): 1.12
LR density (auxin signaling mutants [4]; axr5-1): 27.56
Root length (auxin signaling mutants [4]; axr5-1): 1.27
LR density (auxin signaling mutants [4]; cyp79b2-3 DM (double mutant)): 37.27
Root length (auxin signaling mutants [4]; cyp79b2-3 DM (double mutant)): 1.43
LR density (auxin signaling mutants [4]; iaa28-1): 48.10
Root length (auxin signaling mutants [4]; iaa28-1): 0.86
LR density (auxin signaling mutants [4]; lax3): 63.09
Root length (auxin signaling mutants [4]; lax3): 1.02
LR density (auxin signaling mutants [4]; msg2-1): 37.22
Root length (auxin signaling mutants [4]; msg2-1): 1.13
LR density (auxin signaling mutants [4]; slr-1): 0.00
Root length (auxin signaling mutants [4]; slr-1): 0.84
LR density (auxin signaling mutants [4]; tir1-1): 57.73
Root length (auxin signaling mutants [4]; tir1-1): 0.99
LR density (auxin signaling mutants [4]; tir7-1): 41.72
Root length (auxin signaling mutants [4]; tir7-1): 0.87
LR density (auxin signaling mutants [4]; [5]): 47.00
Root length (auxin signaling mutants [4]; [5]): 0.80
LR density response to increasing compound concentration ([2]; FIG. 4): threshold-like mechanism
compound concentration that increased root density five times compared to controls ([2]; FIG. 4): 1.5 µM
Root length [2]: 0.2 times the root length of controls
lateral root density (auxin signaling mutants [3]; Afb1-1, 0.1 uM): 13.49 LR/cm
lateral root density (auxin signaling mutants [3]; Afb1-1, 0.3 uM): 8.76 LR/cm
lateral root density (auxin signaling mutants [3]; Afb1-1, 1 uM): 21.43 LR/cm
lateral root density (auxin signaling mutants [3]; Afb1-1, 3 uM): 47.81 LR/cm
lateral root density (auxin signaling mutants [3]; Afb2-1, 0.1 uM): 14.57 LR/cm
lateral root density (auxin signaling mutants [3]; Afb2-1, 0.3 uM): 8.98 LR/cm
lateral root density (auxin signaling mutants [3]; Afb2-1, 1 uM): 28.72 LR/cm
lateral root density (auxin signaling mutants [3]; Afb2-1, 3 uM): 59.72 LR/cm
lateral root density (auxin signaling mutants [3]; Afb3-1, 0.1 uM): 15.27 LR/cm
lateral root density (auxin signaling mutants [3]; Afb3-1, 0.3 uM): 8.93 LR/cm
lateral root density (auxin signaling mutants [3]; Afb3-1, 1 uM): 27.72 LR/cm
lateral root density (auxin signaling mutants [3]; Afb3-1, 3 uM): 55.01 LR/cm
lateral root density (auxin signaling mutants [3]; Arf7Arf19, 0.1 uM): 0.00 LR/cm
lateral root density (auxin signaling mutants [3]; Arf7Arf19, 0.3 uM): 0.00 LR/cm
lateral root density (auxin signaling mutants [3]; Arf7Arf19, 1 uM): 0.17 LR/cm
lateral root density (auxin signaling mutants [3]; Arf7Arf19, 3 uM): 13.18 LR/cm
lateral root density (auxin signaling mutants [3]; Arf16, 0.1 uM): 8.05 LR/cm
lateral root density (auxin signaling mutants [3]; Arf16, 0.3 uM): 6.63 LR/cm
lateral root density (auxin signaling mutants [3]; Arf16, 1 uM): 10.83 LR/cm
lateral root density (auxin signaling mutants [3]; Arf16, 3 uM): 17.17 LR/cm
lateral root density (auxin signaling mutants [3]; Arf17, 0.1 uM): 6.57 LR/cm
lateral root density (auxin signaling mutants [3]; Arf17, 0.3 uM): 10.34 LR/cm
lateral root density (auxin signaling mutants [3]; Arf17, 1 uM): 0.47 LR/cm
lateral root density (auxin signaling mutants [3]; Arf17, 3 uM): 24.68 LR/cm
lateral root density (auxin signaling mutants [3]; Axrt-12, 0.1 uM): 8.04 LR/cm
lateral root density (auxin signaling mutants [3]; Axrt-12, 0.3 uM): 9.25 LR/cm
lateral root density (auxin signaling mutants [3]; Axrt-12, 1 uM): 9.03 LR/cm
lateral root density (auxin signaling mutants [3]; Axrt-12, 3 uM): 27.55 LR/cm
lateral root density (auxin signaling mutants [3]; Cyp79, 0.1 uM): 15.83 LR/cm
lateral root density (auxin signaling mutants [3]; Cyp79, 0.3 uM): 6.85 LR/cm
lateral root density (auxin signaling mutants [3]; Cyp79, 1 uM): 22.20 LR/cm
lateral root density (auxin signaling mutants [3]; Cyp79, 3 uM): 50.78 LR/cm
lateral root density (auxin signaling mutants [3]; Iaa28-1, 0.1 uM): 3.57 LR/cm
lateral root density (auxin signaling mutants [3]; Iaa28-1, 0.3 uM): 7.46 LR/cm
lateral root density (auxin signaling mutants [3]; Iaa28-1, 1 uM): 11.92 LR/cm
lateral root density (auxin signaling mutants [3]; Iaa28-1, 3 uM): 40.09 LR/cm
lateral root density (auxin signaling mutants [3]; Tir1-1, 0.1 uM): 5.14 LR/cm
lateral root density (auxin signaling mutants [3]; Tir1-1, 0.3 uM): 11.34 LR/cm
lateral root density (auxin signaling mutants [3]; Tir1-1, 1 uM): 6.74 LR/cm
lateral root density (auxin signaling mutants [3]; Tir1-1, 3 uM): 18.30 LR/cm
lateral root density (auxin signaling mutants [3]; Tir7-1, 0.1 uM): 15.76 LR/cm
lateral root density (auxin signaling mutants [3]; Tir7-1, 0.3 uM): 5.78 LR/cm
lateral root density (auxin signaling mutants [3]; Tir7-1, 1 uM): 14.79 LR/cm
lateral root density (auxin signaling mutants [3]; Tir7-1, 3 uM): 46.33 LR/cm
lateral root density (auxin signaling mutants [3]; TirTM, 0.1 uM): 8.04 LR/cm
lateral root density (auxin signaling mutants [3]; TirTM, 0.3 uM): 18.89 LR/cm
lateral root density (auxin signaling mutants [3]; TirTM, 1 uM): 15.81 LR/cm
lateral root density (auxin signaling mutants [3]; TirTM, 3 uM): 45.09 LR/cm
lateral root density (auxin signaling mutants [3]; Xbat32, 0.1 uM): 4.27 LR/cm
lateral root density (auxin signaling mutants [3]; Xbat32, 0.3 uM): 9.26 LR/cm
lateral root density (auxin signaling mutants [3]; Xbat32, 1 uM): 12.70 LR/cm
lateral root density (auxin signaling mutants [3]; Xbat32, 3 uM): 33.67 LR/cm

CN1C(=O)C(=Cc2ccc(-c3cccc(C(F)(F)F)c3)o2)SC1=S [A11, 3-methyl-2-thioxo-5-({5-[3-(trifluoromethyl)phenyl]-2-furyl}methylene)-1,3-thiazolidin-4-one]
stage of LR initiation at which the effect on gene expression is exerted [1]: late stages of LR initiation (24 h)
compound concentration that increased root density five times compared to controls ([2]; FIG. 4): 20 µM
Root length [2]: 0.7 times the root length of controls
potency as activator of LR development (LR density) [2]: most potent activators of class 2
lateral root density (auxin signaling mutants [3]; Afb1-1, 30 uM): 20.74 LR/cm
lateral root density (auxin signaling mutants [3]; Afb2-1, 30 uM): 14.04 LR/cm
lateral root density (auxin signaling mutants [3]; Afb3-1, 30 uM): 12.99 LR/cm
lateral root density (auxin signaling mutants [3]; Arf7Arf19, 30 uM): 0.04 LR/cm
lateral root density (auxin signaling mutants [3]; Arf16, 30 uM): 8.76 LR/cm
lateral root density (auxin signaling mutants [3]; Arf17, 30 uM): 11.04 LR/cm
lateral root density (auxin signaling mutants [3]; Axrt-12, 30 uM): 12.26 LR/cm
lateral root density (auxin signaling mutants [3]; Cyp79, 30 uM): 13.74 LR/cm
lateral root density (auxin signaling mutants [3]; Iaa28-1, 30 uM): 10.36 LR/cm
lateral root density (auxin signaling mutants [3]; Tir1-1, 30 uM): 8.95 LR/cm
lateral root density (auxin signaling mutants [3]; Tir7-1, 30 uM): 43.59 LR/cm
lateral root density (auxin signaling mutants [3]; TirTM, 30 uM): 0.00 LR/cm
lateral root density (auxin signaling mutants [3]; Xbat32, 30 uM): 7.76 LR/cm
